The text below walks through data of patent publication US20060110401A1, “Mixture of peptides from c and ns3 proteins of the hepatitis c virus and applications thereof” (priority 2002, published 2006).

Experiment [1] addresses T1, HLA-DR1 (DRB1*0101) (Homo sapiens, UniProt P01903+P01911, A100R/D57E/F55L/F60I/F76Y/I96L/L162R/M171V/P40L/Q125E/R42F/V115G/Y59C).
T1 construct: endogenous in cells; host or cells: homozygous EBV-transformed human B lymphocyte lines; immunopurified with antibody L243
Nature of the experiment: biochemical. Type of experiment: binding. To be noted: for IC50: DRB1*0101.

Experiment [2] concerns the target T2, HLA-DR4 (DRB1*0401) (Homo sapiens, UniProt P01903+P01911, A100K/A169T/F76Y/I96L/K127E/L162R/M171V/N62H/P40V/Q125Y/R42H/S133A/S149N/S66Y/V115G/V209L/W38E).
T2 construct: endogenous in cells; host or cells: homozygous EBV-transformed human B lymphocyte lines; immunopurified with antibody L243
Nature of the experiment: biochemical. Format: binding. To be noted: read-out: binds with good affinity to DR4.

For experiment [3], the target named is HLA-DR7 (DRB1*0701) (Homo sapiens, UniProt P01903+P01911, A100R/A102G/A103Q/D57E/D86V/E43K/F76Y/K127E/L162R/M171V/P40G/Q125H/Q99D/R33Q/R42Y/R54Q/S133A/S66F/T210M/V115G/Y107V/Y59L/Y89S). Nature of the experiment: biochemical. Type of experiment: binding. The settings on record: read-out: binds with good affinity to DR7.
Experiment [4] deals with HLA-DR11 (DRB1*1101) (Homo sapiens, UniProt P01903+P01911, A100R/A169T/A87E/I96F/K41T/L162R/M171V/P40S/Q125H/Q178H/Q39Y/Q99D/R42S/S66Y/T262R/V115G/W38E). Nature of the experiment: biochemical. Format: binding. To be noted: read-out: binds with good affinity to DR11.
Experiment [5] deals with HLA-DR13 (DRB1*1301) (Homo sapiens, UniProt P01903+P01911, A100E/A169T/K41T/L162R/M171V/P40S/Q125H/Q178H/Q39Y/Q99D/R42S/S66N/T262R/W38E/Y61H). In words: biochemical. Format: binding. To be noted: read-out: binds with good affinity to DR13.
Experiment [6] concerns the target T3, HLA-DR15 (DRB1*1501) (Homo sapiens, UniProt P01903+P01911).
T3 construct: endogenous in cells; host or cells: homozygous EBV-transformed human B lymphocyte lines; immunopurified with antibody L243
In words: biochemical. Format: binding. To be noted: DRB1*1501; read-out: binds with good affinity to DR15.

Experiment [7] has as its system DR1. In words: DR1.
Experiment [8] relates to DR3. In words: DR3. The text has this:
(§1) Table printed on a drawing sheet, Figure 2
Where the first naming reader finds the target: head: DR3

Experiment [9] has as its system DR4. Nature of the experiment: DR4.
The test system of experiment [10] is DR7. In words: DR7.
In experiment [11] the test system is DR13. In words: DR13.
Description: as §1
Where the first naming reader finds the target: head: DR13

In experiment [12] the test system is DR15. In words: DR15.
Experiment [13] deals with DRB3. In words: DRB3.
The test system of experiment [14] is DRB4. In words: DRB4.
Description: as §1
Where the first naming reader finds the target: head: DRB4

The test system of experiment [15] is DR11. Nature of the experiment: DR11.
Description: as §1
Where the first naming reader finds the target: head: DR11

Experiment [16] deals with DP401. In words: DP401.
Experiment [17] concerns DP402. In words: DP402.
In experiment [18] the target is T4, HLA-DRB5 (DRB5*0101) (Homo sapiens, UniProt P01903+Q30154).
T4 construct: endogenous in cells; host or cells: homozygous EBV-transformed human B lymphocyte lines; immunopurified with antibody L243
Nature of the experiment: biochemical. Format: binding. The settings on record: read-out: binds with good affinity to DRB5.

Experiment [19] relates to DRB5. In words: DRB5.
In experiment [20] the target is T5, HLA-DRB4 (DRB4*0101) (Homo sapiens, UniProt P01903+P13762, G164S).
T5 construct: endogenous in cells; host or cells: homozygous EBV-transformed human B lymphocyte lines; immunopurified with antibody L243
Nature of the experiment: biochemical. To be noted: read-out: binds with good affinity to DRB4. Type of experiment: binding.

For experiment [21], the system named is T lymphocytes derived from PBMCs from patients chronically infected with HCV. Type of experiment: cell-based, human. The settings on record: supernatant 48 h, —: not detected.
Where [22] appears, read: read-out: binds with good affinity to DR1.

Each structure is given as a SMILES string. Read-outs that look alike come from different tables or passages of the source. Residues, ends and D or L forms follow the SMILES beside them.

HLA-DR11 (DRB1*1101), sequence (P01903 26-254 limits assumed, other chains not shown): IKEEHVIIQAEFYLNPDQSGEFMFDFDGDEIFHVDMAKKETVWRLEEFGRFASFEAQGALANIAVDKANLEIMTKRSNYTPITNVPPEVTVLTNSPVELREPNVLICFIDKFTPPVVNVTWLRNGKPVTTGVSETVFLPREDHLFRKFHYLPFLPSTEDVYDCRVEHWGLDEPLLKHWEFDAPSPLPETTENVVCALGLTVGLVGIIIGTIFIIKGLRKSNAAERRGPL

As to `CC[C@H](C)[C@H](NC(=O)CNC(=O)[C@H](Cc1c[nH]cn1)NC(=O)[C@H](C)NC(=O)[C@H](CCCCN)NC(=O)[C@H](CO)NC(=O)[C@H](CCSC)NC(=O)[C@H](Cc1ccc(O)cc1)NC(=O)[C@H](C)NC(=O)CNC(=O)[C@H](Cc1ccccc1)NC(=O)CNC(=O)[C@H](CC(C)C)NC(=O)[C@@H](NC(=O)[C@H](C)NC(=O)[C@H](C)NC(=O)[C@@H](NC(=O)[C@H](CO)NC(=O)[C@@H]1CCCN1C(=O)[C@H](CC(N)=O)NC(=O)[C@H](CC(C)C)NC(=O)[C@@H](NC(=O)[C@H](CC(C)C)NC(=O)[C@@H](NC(=O)[C@H](CCCCN)NC(=O)[C@H](Cc1ccc(O)cc1)NC(=O)CNC(=O)[C@H](CCC(N)=O)NC(=O)[C@H](C)N)C(C)C)C(C)C)C(C)C)[C@@H](C)O)C(=O)N[C@@H](CC(=O)O)C(=O)O` [18N 1246-1275], the IC50 in experiment [1] (setting [22]), in experiment [2], in experiment [3], in experiment [4], in experiment [5] and in experiment [6] was < 1000 nM in each case. For the same compound, the IC50 in experiment [7] stood at 1 nM; in experiment [8] it was 2.5 µM; in [9] it was 5 nM; in experiment [10] it was 15 nM; in experiment [11] it was 900 nM; in [12], 58 nM. The IC50 in [13] was > 30 µM; in experiment [14], 2500 nM; in experiment [15], 40 nM; in experiment [16] it was > 100 µM; in experiment [17], 11.4 µM.

On to `CC[C@H](C)[C@H](N)C(=O)N[C@@H](CCC(=O)O)C(=O)N[C@@H](CCC(=O)O)C(=O)N[C@H](C(=O)N[C@@H](C)C(=O)N[C@@H](CC(C)C)C(=O)N[C@@H](CO)C(=O)N[C@H](C(=O)N[C@H](C(=O)NCC(=O)N[C@@H](CCC(=O)O)C(=O)N[C@H](C(=O)N1CCC[C@H]1C(=O)N[C@@H](Cc1ccccc1)C(=O)N[C@@H](Cc1ccc(O)cc1)C(=O)NCC(=O)N[C@@H](CCCCN)C(=O)N[C@@H](C)C(=O)N[C@H](C(=O)N1CCC[C@H]1C(=O)N[C@@H](CC(C)C)C(=O)N[C@@H](CCC(=O)O)C(=O)N[C@H](C(=O)N[C@H](C(=O)N[C@@H](CCCCN)C(=O)NCC(=O)O)[C@@H](C)CC)C(C)C)[C@@H](C)CC)[C@@H](C)CC)[C@@H](C)O)[C@@H](C)O)C(C)C` [22N 1362-1387] (H-IEEVALSTTGEIPFYGKAIPLEVIKG-OH; N-terminus and C-terminus assumed), for which the IC50 in experiment [1] (setting [22]) was < 1000 nM; in experiment [3] it was < 1000 nM; in experiment [6], < 1000 nM; in experiment [18], < 1000 nM; in [8], 21.2 µM; in experiment [9] it was 1620 nM. The IC50 in experiment [10] was found to be 20 nM; in experiment [12], 425 nM; in [13], 32.5 µM; in [14], 4000 nM; in experiment [19] it was 200 nM; in experiment [15], 3000 nM. Also, the IC50 in experiment [16] came to 8.01 µM; in [17] it was 10.3 µM.

With `CC[C@H](C)[C@H](NC(=O)[C@H](CCC(N)=O)NC(=O)[C@@H](NC(=O)[C@H](CCC(=O)O)NC(=O)CNC(=O)[C@H](CCC(=O)O)NC(=O)[C@@H](NC(=O)[C@H](CCC(N)=O)NC(=O)[C@H](CC(N)=O)NC(=O)[C@@H](N)CCCCN)C(C)C)C(C)C)C(=O)N[C@H](C(=O)N[C@@H](CO)C(=O)N[C@H](C(=O)N[C@@H](C)C(=O)N[C@@H](C)C(=O)N[C@@H](CCC(N)=O)C(=O)N[C@H](C(=O)N[C@@H](Cc1ccccc1)C(=O)N[C@@H](CC(C)C)C(=O)N[C@@H](C)C(=O)N[C@H](C(=O)O)[C@@H](C)O)[C@@H](C)O)[C@@H](C)O)C(C)C` [10N 1052-1072], the IC50 in experiment [1] (setting [22]), in [2], in experiment [3], in experiment [4], in [6] and in [20] was < 1000 nM each time. Also, the IC50 in experiment [18] is < 1000 nM; in experiment [7], 400 nM; in experiment [8], 2.25 µM; in experiment [9], 24 nM; in experiment [10], 7 nM; in experiment [12], 300 nM. The IC50 in [13] turned out to be 10 µM; in experiment [14], 400 nM; in experiment [19], 19 nM; in experiment [15], 200 nM; in [16], 2.03 µM; in experiment [17], 1.18 µM.

Take `CC[C@H](C)[C@H](NC(=O)CNC(=O)[C@@H](NC(=O)[C@H](C)NC(=O)[C@H](Cc1c[nH]cn1)NC(=O)CN)C(C)C)C(=O)N[C@@H](Cc1ccccc1)C(=O)N[C@@H](CCCNC(=N)N)C(=O)N[C@@H](C)C(=O)N[C@@H](C)C(=O)N[C@H](C(=O)N[C@@H](CS)C(=O)N[C@H](C(=O)N[C@@H](CCCNC(=N)N)C(=O)NCC(=O)N[C@H](C(=O)N[C@@H](C)C(=O)N[C@@H](CCCCN)C(=O)N[C@@H](C)C(=O)N[C@H](C(=O)N[C@@H](CC(=O)O)C(=O)N1CCC[C@H]1C(=O)O)C(C)C)C(C)C)[C@@H](C)O)C(C)C` [15N 1174-1195] (H-GHAVGIFRAAVCTRGVAKAVDP-OH; N-terminus and C-terminus assumed): the IC50 in experiment [1] (competition with biotinylated tracer HA 306-318, read-out: IC50, binding to HLA-DR1) was 3 nM; in experiment [1] (setting [22]) it was < 1000 nM; in experiment [2], < 1000 nM; in [4], < 1000 nM; in experiment [6], < 1000 nM; in experiment [20], < 1000 nM. Also, the IC50 was < 1000 nM in [18]; 30 µM in experiment [8]; 30 nM in experiment [9]; 10000 nM in experiment [11]; 90 nM in experiment [12]; 20 nM in [19]. The same compound came in with an IC50 in experiment [17] of 2.98 µM. For the same compound, in experiment [1] (legend of FIG. 4), the “affinity for HLA-DR1 (in words)” value was “high affinity”. For the same compound, the IL10 in experiment [21] (patient 067) was found to be 55 pg/mL; in experiment [21] (patient 078), 43 pg/mL.

Regarding `CC[C@H](C)[C@H](NC(=O)[C@@H](NC(=O)[C@H](CC(=O)O)NC(=O)[C@H](C)NC(=O)[C@H](Cc1c[nH]cn1)NC(=O)[C@H](CCCNC(=N)N)NC(=O)[C@@H](NC(=O)[C@@H](NC(=O)[C@H](CC(C)C)NC(=O)[C@H](Cc1ccc(O)cc1)NC(=O)[C@H](CC(C)C)NC(=O)[C@H](CC(=O)O)NC(=O)[C@H](CO)NC(=O)[C@@H](N)CO)C(C)C)[C@@H](C)O)C(C)C)C(=O)N1CCC[C@H]1C(=O)N[C@H](C(=O)N[C@@H](CCCNC(=N)N)C(=O)N[C@@H](CCCNC(=N)N)C(=O)N[C@@H](CCCNC(=N)N)C(=O)NCC(=O)N[C@@H](CC(=O)O)C(=O)N[C@@H](CO)C(=O)N[C@@H](CCCNC(=N)N)C(=O)NCC(=O)N[C@@H](CO)C(=O)N[C@@H](CC(C)C)C(=O)N[C@@H](CC(C)C)C(=O)O)C(C)C` [13N 1127-1153], the IC50 is < 1000 nM in experiment [1] (setting [22]); < 1000 nM in experiment [3]; < 1000 nM in experiment [4]; < 1000 nM in experiment [5]; < 1000 nM in experiment [18]; 700 nM in experiment [7]. Besides, the IC50 in [9] came to 3500 nM; in experiment [10] it was 17 nM; in experiment [11] it was 300 nM; in experiment [14], 2500 nM; in [19] it was 500 nM; in [15], 17 nM. Moreover, the IC50 in experiment [17] is 8.71 µM.
